“And” between values parts separate entries of the source, which are not always exact repeats. Equal values may be shown once. ± gives the uncertainty stated by the source.
N#CCCO
Conditions | viscosity [mPa·s]
298 K, 101 kPa | 3.571 ± 0.031

CCCO
Conditions | viscosity
293.15 K, 101.33 kPa | 2.185 ± 0.046 mPa·s and 2.327 ± 0.023 mPa·s
295.15 K, 101 kPa | 2.12 ± 0.056 mPa·s
298.15 K, 100 kPa | 1.91 ± 0.06 mPa·s
298.15 K, 101.31 kPa | 2.004 ± 0.052 mPa·s
298.15 K, 101.33 kPa | 1.743 ± 0.041 mPa·s
303 K, 101 kPa | 1.634 mPa·s
303 K, 101.33 kPa | 1.769 ± 0.016 mPa·s
303.15 K, 101 kPa | 1.777 ± 0.018 mPa·s and 1.591 ± 0.02 mPa·s and 1.768 ± 0.034 mPa·s
303.15 K, 101.3 kPa | 1.6 ± 0.1 mPa·s and 1.784 ± 0.021 mPa·s
303.16 K, 101 kPa | 1.92 ± 0.23 mPa·s
308 K, 101.3 kPa | 1.461 ± 0.15 mPa·s
308.15 K, 101.3 kPa | 1.488 ± 0.037 mPa·s and 1.4 ± 0.1 mPa·s
308.15 K, 101.33 kPa | 1.486 ± 0.009 mPa·s and 1.466 ± 0.012 mPa·s and 1.376 ± 0.033 mPa·s
311 K, 101.3 kPa | 1.43 ± 0.023 mPa·s
313 K, 101.3 kPa | 1.317 ± 0.13 mPa·s
313.15 K, 101.3 kPa | 1.3 ± 0.1 mPa·s
313.15 K, 101.33 kPa | 1.319 ± 0.008 mPa·s
318.15 K, 101.3 kPa | 1.1 ± 0.1 mPa·s
319 K, 101.3 kPa | 1.197 ± 0.02 mPa·s
323 K, 101 kPa | 0.9714 ± 0.014 mPa·s
323 K, 101.3 kPa | 1.165 ± 0.12 mPa·s
323.15 K, 101 kPa | 1.15 ± 0.024 mPa·s
323.15 K, 101.3 kPa | 0.92 ± 0.05 mPa·s
323.15 K, 101.33 kPa | 1.136 ± 0.069 mPa·s and 1.166 ± 0.012 mPa·s

COC(=O)OC
viscosity
Conditions | 293.15 K | 298.15 K | 303.15 K | 308.15 K | 313.15 K | 318.15 K | 323.15 K
100 kPa | 0.62 ± 0.11 mPa·s | 0.58 ± 0.1 mPa·s | 0.5 ± 0.09 mPa·s | 0.47 ± 0.08 mPa·s | 0.45 ± 0.08 mPa·s and 0.489 ± 0.015 mPa·s | 0.43 ± 0.08 mPa·s and 0.462 ± 0.014 mPa·s | 0.38 ± 0.07 mPa·s and 0.437 ± 0.014 mPa·s
101 kPa | 0.624 ± 0.014 mPa·s | 0.58 ± 0.02 mPa·s | 0.55 ± 0.02 mPa·s and 0.55 ± 0.013 mPa·s | 0.49 ± 0.02 mPa·s and 0.519 ± 0.013 mPa·s | 0.45 ± 0.02 mPa·s and 0.491 ± 0.012 mPa·s | 0.4 ± 0.02 mPa·s and 0.465 ± 0.012 mPa·s | 0.442 ± 0.012 mPa·s
101.3 kPa | 0.628 ± 0.014 mPa·s | – | 0.553 ± 0.012 mPa·s | 0.524 ± 0.011 mPa·s | 0.496 ± 0.005 mPa·s | – | –
101.33 kPa | – | – | 0.503 ± 0.015 mPa·s | 0.474 ± 0.014 mPa·s | – | – | –

OC(C(F)(F)F)C(F)(F)F
101 kPa
Conditions | viscosity
298.15 K | 1.579 ± 0.023 mPa·s and 1.619 ± 0.013 mPa·s
303.15 K | 1.361 ± 0.011 mPa·s
313.15 K | 0.989 ± 0.014 mPa·s and 1 ± 0.008 mPa·s
323.15 K | 0.765 ± 0.011 mPa·s and 0.788 ± 0.007 mPa·s

Oc1ccccc1
Conditions | viscosity
293.15 K, 101 kPa | 11.04 ± 0.14 mPa·s and 11.04 ± 0.12 mPa·s and 11.04 ± 0.16 mPa·s
293.2 K, 101 kPa | 11.04 ± 0.16 mPa·s
293.25 K, 101 kPa | 11.04 ± 0.15 mPa·s and 11.04 ± 0.16 mPa·s
298 K, 101.3 kPa | 9.41 ± 0.14 mPa·s
298.15 K, 101 kPa | 8.945 ± 0.13 mPa·s
302.95 K, 101 kPa | 7.09 ± 0.08 mPa·s and 7.1 ± 0.085 mPa·s
303 K, 101.3 kPa | 7.553 ± 0.093 mPa·s
303.05 K, 101 kPa | 7.09 ± 0.09 mPa·s
303.1 K, 101 kPa | 7 ± 0.15 mPa·s
303.15 K, 101.33 kPa | 7 ± 0.07 mPa·s
308 K, 101.3 kPa | 6.106 ± 0.064 mPa·s
308.1 K, 101 kPa | 5.55 ± 0.11 mPa·s
308.15 K, 101 kPa | 6.032 ± 0.16 mPa·s and 4.649 ± 0.057 mPa·s
308.15 K, 101.33 kPa | 5.969 ± 0.072 mPa·s
313 K, 101.3 kPa | 4.971 ± 0.052 mPa·s
313.05 K, 101 kPa | 4.79 ± 0.05 mPa·s
313.25 K, 101 kPa | 4.74 ± 0.06 mPa·s
313.35 K, 101 kPa | 4.74 ± 0.05 mPa·s
318 K, 101.3 kPa | 4.056 ± 0.046 mPa·s
322.95 K, 101 kPa | 3.28 ± 0.04 mPa·s
323.1 K, 101 kPa | 3.2 ± 0.073 mPa·s and 3.2 ± 0.065 mPa·s
323.15 K, 101.33 kPa | 3.2 ± 0.032 mPa·s and 3.432 ± 0.034 mPa·s

C=CC(C)O (centres undefined)
101.32 kPa
Conditions | viscosity [mPa·s]
308.15 K | 1.294 ± 0.024
313.15 K | 1.144 ± 0.021
318.15 K | 1.015 ± 0.019
323.15 K | 0.9032 ± 0.017

NCCCN
viscosity
Conditions | 293.15 K | 298.15 K | 303.15 K | 308.15 K | 313.15 K | 318.15 K | 323.15 K
100 kPa | 1.965 ± 0.033 mPa·s and 1.96 ± 0.03 mPa·s | 1.769 ± 0.03 mPa·s and 1.74 ± 0.03 mPa·s | 1.506 ± 0.025 mPa·s and 1.57 ± 0.03 mPa·s | 1.465 ± 0.024 mPa·s and 1.39 ± 0.03 mPa·s | 1.259 ± 0.021 mPa·s and 1.26 ± 0.03 mPa·s | 1.181 ± 0.02 mPa·s and 1.07 ± 0.03 mPa·s | –
101 kPa | – | – | 1.608 ± 0.013 mPa·s and 1.594 ± 0.019 mPa·s | 1.445 ± 0.012 mPa·s and 1.423 ± 0.017 mPa·s | 1.306 ± 0.01 mPa·s and 1.297 ± 0.015 mPa·s | 1.191 ± 0.0096 mPa·s and 1.181 ± 0.014 mPa·s | 1.09 ± 0.0088 mPa·s and 1.07 ± 0.013 mPa·s
101.3 kPa | 2.03 ± 0.03 mPa·s | 1.83 ± 0.03 mPa·s | 1.62 ± 0.03 mPa·s | 1.42 ± 0.03 mPa·s | 1.23 ± 0.03 mPa·s | 1.13 ± 0.03 mPa·s | –
101.33 kPa | 1.93 ± 0.06 mPa·s | 1.67 ± 0.05 mPa·s | 1.52 ± 0.05 mPa·s and 1.594 ± 0.019 mPa·s | 1.37 ± 0.04 mPa·s and 1.423 ± 0.017 mPa·s | 1.22 ± 0.04 mPa·s and 1.297 ± 0.015 mPa·s | 1.11 ± 0.03 mPa·s and 1.181 ± 0.014 mPa·s | 1.07 ± 0.013 mPa·s

COCCOCCOC
Conditions | viscosity
298.15 K, 101 kPa | 0.983 ± 0.013 mPa·s and 0.983 ± 0.007 mPa·s and 0.996 ± 0.032 mPa·s
298.15 K, 101.32 kPa | 0.989 ± 0.006 mPa·s
301.15 K, 100 kPa | 1.2 ± 0.1 mPa·s and 1.3 ± 0.1 mPa·s and 1.4 ± 0.1 mPa·s
303.15 K, 101 kPa | 0.923 ± 0.012 mPa·s
303.15 K, 101.33 kPa | 0.904 ± 0.012 mPa·s
308.15 K, 101 kPa | 0.839 ± 0.011 mPa·s and 0.839 ± 0.006 mPa·s and 0.868 ± 0.029 mPa·s
318.15 K, 101 kPa | 0.721 ± 0.01 mPa·s and 0.721 ± 0.005 mPa·s
318.15 K, 101.33 kPa | 0.728 ± 0.01 mPa·s (4×) and 0.725 ± 0.019 mPa·s and 0.728 ± 0.019 mPa·s

CNc1ccccc1
Conditions | viscosity [mPa·s]
298 K, 101 kPa | 1.963 ± 0.05
298 K, 101.3 kPa | 1.963 ± 0.052
298.15 K, 101 kPa | 2.02 ± 0.03
303 K, 101.3 kPa | 1.717 ± 0.046
303 K, 101.33 kPa | 1.751 ± 0.045
303.15 K, 101 kPa | 1.55 ± 0.04
308 K, 101.3 kPa | 1.538 ± 0.041
308.15 K, 101.33 kPa | 1.515 ± 0.051
313 K, 101.3 kPa | 1.386 ± 0.037
318 K, 101.3 kPa | 1.251 ± 0.034
323.15 K, 101 kPa | 1.401 ± 0.12

CCCCCCn1cc[n+](C)c1.F[B-](F)(F)F
101 kPa
Conditions | viscosity
298.15 K | 171.8 ± 8.1 mPa·s and 211.2 ± 11 mPa·s
299.15 K | 198.1 ± 9.4 mPa·s and 197.3 ± 9.4 mPa·s
301.15 K | 177.2 ± 7.8 mPa·s and 175.8 ± 7.7 mPa·s
302.15 K | 167.2 ± 7 mPa·s and 165.9 ± 7 mPa·s
304.15 K | 148.4 ± 5.8 mPa·s and 148.6 ± 5.7 mPa·s
305.15 K | 141.2 ± 5.1 mPa·s and 140.7 ± 5.1 mPa·s
307.15 K | 127.5 ± 4.2 mPa·s and 126.7 ± 4.2 mPa·s
308.15 K | 145.4 ± 44 mPa·s and 120.7 ± 3.8 mPa·s and 120 ± 3.8 mPa·s
313.15 K | 113.6 ± 34 mPa·s and 55 ± 3.4 mPa·s
318.15 K | 90.3 ± 27 mPa·s
323.15 K | 72.8 ± 22 mPa·s and 36 ± 2.2 mPa·s

— the CheMixHub viscosity set
